Experiments:
Assay type in all cases: cell-based
PC3 = test: Test A: Cytostatic Cell Culture Assay (GI50), PC3; conditions: Homo sapiens, PC-3, 120 h; PC3 cells, 5 days, SRB; read-out: G150 Prostate PC3
Text: (§1) Test A: Cytostatic Cell Culture Assay (GI50)
(§2) This assay is based on quantification of cell counts by a calorimetric detection of the cell associated proteins. The assay relies on the ability of sulforhodamine B (SRB) to bind to protein components of cells that have been fixed to tissue-culture plates by trichloroacetic acid (TCA). SRB is a bright-pink aminoxanthene dye with two sulfonic groups that bind to basic amino-acid residues under mild acidic conditions, and dissociate under basic conditions. As the binding of SRB is stoichiometric, the amount of dye extracted from stained cells is directly proportional to the cell mass.
(§3) Cell lines: All cell lines are obtained from ATCC (Manassas, Va.). Cultivation media containing Glutanax, and trypsin are purchased from Invitrogen (Carlsbad, Calif.). Doxorubicin, Clofarabine, TCA and SRB are from Sigma-Aldrich (St. Louis, Mo.). Gemcitabine is obtained from Moravek Biochemicals (Brea, Calif.)
(§4) • 1. Trypsinize the sub-confluent cells, count them, and adjust the cell concentrations according to the cell counts listed in Table 1. • 2. Distribute the cells into the 96-well plates in 150 μL of media. Incubate the plates overnight in humidified CO2 incubator at 37° C. • 3. Fix one plate of each cell line with TCA. Discard the cultivation media from the plates by flicking them gently and add 100 μL cold 10% (vol/vol) TCA to each well. Incubate the plates at 4 degree refrigerator for 1 hour. Discard TCA from the plates by flicking them gently. Rinse plates four times in a washing basin containing tap water. Store the plates at room temperature. These plates represent cell counts on day zero. • 4. Prepare a set of medium solutions containing various concentrations of tested compounds by making 5-fold serial dilutions in 96-well plate. Add 50 μL of the diluted compounds per well. Include controls with untreated cells and cells treated with doxorubicin, clofarabine and gemcitabine. • 5. Incubate the plates for 5 days at 37° C. • 6. Fix the plates with TCA. Discard the cultivation media from the plates by flicking them gently and add 100 μL cold 10% (vol/vol) TCA to each well. Incubate the plates at 4 degree refrigerator for 1 hour. Discard TCA from the plates by flicking them gently. Rinse plates four times in a washing basin containing tap water. • 7. Remove excess water by tapping the plates face down, gently on a paper towel. Allow the plates to air-dry at room temperature. • 8. Add 100 μL of 0.057% SRB solution in 1% (vol/vol) acetic acid to each well of the plates fixed with TCA on day zero and five. Leave at room temperature for 30 minutes. • 9. Flick the plates gently to discard SRB. Rinse the plates four times with 1% (vol/vol) Acetic Acid. • 10. Store the plates at 370 incubator to facilitate faster drying. • 11. Once the plates are completely dry, add 200 μL of 10 mM Tris base solution (pH 10.5) to each well. Leave at room temperature for 30 minutes for SRB to solubilize. • 12. Measure the OD at 500 nm in a microplate reader. • 13. Calculate the percentage of cell-growth inhibition using the next formula: % of control cell growth=100×(ODsample−mean ODday0)/(ODneg control−mean ODday0)
(§5) For GI50 determination, plot a dose-response curves between the compound concentration and percent of growth inhibition. GI50 values can be derived by fitting dose-response curves using sigmoidal dose response equation.

HCT15 = test: Test A: Cytostatic Cell Culture Assay (GI50), HCT15; conditions: Homo sapiens, HCT-15, 120 h; HCT15 cells, 5 days, SRB; read-out: G150 Colon HCT15
Text: as §1, §2, §3, §4, §5

Du145 = test: Test A: Cytostatic Cell Culture Assay (GI50), Du145; conditions: Homo sapiens, DU-145, 120 h; Du145 cells, 5 days, SRB; read-out: G150 Prostate Du145
Text: as §1, §2, §3, §4, §5

A549 = test: Test A: Cytostatic Cell Culture Assay (GI50), A549; conditions: Homo sapiens, 120 h; A549 cells, 5 days, SRB; read-out: G150 Lung A549
Text: as §1, §2, §3, §4, §5

NCIH23 = test: Test A: Cytostatic Cell Culture Assay (GI50), NCIH23; conditions: Homo sapiens, NCI-H23, 120 h; NCIH23 cells, 5 days, SRB; read-out: G150 Lung NCIH23
Text: as §1, §2, §3, §4, §5

Hs578 = test: Test A: Cytostatic Cell Culture Assay (GI50), Hs578; conditions: 120 h; Hs578 cells, 5 days, SRB; read-out: G150 Breast Hs578
Text: as §1, §2, §3, §4, §5

HCT116 = test: Test A: Cytostatic Cell Culture Assay (GI50), HCT116; conditions: Homo sapiens, HCT-116, 120 h; HCT116 cells, 5 days, SRB; read-out: G150 Colon HCT116
Text: as §1, §2, §3, §4, §5

[1] = system: Human T-lymphoid cell line CCRF-CEM; test: Cell cycle distribution in human T-lymphoid cells (propidium iodide, flow cytometry); conditions: 72 hours; for G1 % / G2/M % / S %: 1.5 μM
Experimental: Effects of the Compounds on Cell Cycle Distribution in Human T-Lymphoid Cells
Human T-lymphoid cell line CCRF-CEM is treated with tested compounds for 72 hours at the concentration corresponding to the CC50 value of each compound. At the end of incubation, cells are harvested by centrifugation, washed, and fixed in ethanol. Fixed cells are stained with propidium iodide in a buffer containing RNaseA and the cell cycle distribution analysis is performed by flow cytometry using BD FACSAria instrument. Data are processed using BD FACSDiva software v4.1 and presented as a percentage of analyzed cell population in Phase G1, S, and G2/M. Cell cycle distribution is determined in parallel for untreated and treated cells and relative change for each cell cycle phase is calculated.
The data represent changes in the frequency of each cell cycle phase in treated cells relative to untreated control (the relative fraction of each analyzed cell cycle phase in untreated control has the value of 1).
Primary data are shown in Table 3, with values representing the percentage distribution of each cell cycle phase in the total cell population.

[2] = concentration corresponding to CC50, untreated control = 1

OC[C@H]1O[C@@H](n2ccc3c(-c4c[nH]cn4)ncnc32)[C@H](O)[C@@H]1O [Example 9, 4-(1H-Imidazol-4-yl)-7-(β-D-ribofuranosyl)-7H-pyrrolo[2,3-d]pyrimidine] was tested, and the IC50 (PC3) was 194 nM, the IC50 (HCT15) was 224 nM and the IC50 (Du145) was 94 nM. The IC50 (A549) was 2590 nM, the IC50 (NCIH23) was 2490 nM and the IC50 (Hs578) was 1940 nM. For the same molecule, the IC50 (HCT116) was 3690 nM.
OC[C@H]1O[C@@H](n2cc(F)c3c(-c4cc[nH]c4)ncnc32)[C@H](O)[C@@H]1O [Example 27, 5-Fluoro-7-(β-D-ribofuranosyl)-4-(pyrrol-3-yl)-7H-pyrrolo[2,3-d]pyrimidine] showed an IC50 (PC3) of 60 nM, an IC50 (HCT15) of 65 nM and an IC50 (Du145) of 10 nM. For the same molecule, the IC50 (A549) was 126 nM, the IC50 (NCIH23) was 1600 nM and the IC50 (Hs578) was 356 nM. It also gave an IC50 (HCT116) of 255 nM.
Molecule OC[C@H]1O[C@@H](n2cc(F)c3c(-c4ccco4)ncnc32)[C@H](O)[C@@H]1O [Example 20, 5-Fluoro-4-(furan-2-yl)-7-(β-D-ribofuranosyl)-7H-pyrrolo[2,3-d]pyrimidine] has an IC50 (PC3) of 75 nM, an IC50 (HCT15) of 57 nM and an IC50 (Du145) of 5 nM. The G1 % ([1]; replicate 1) was 22.32%, the G2/M % ([1]; replicate 1) was 30.19% and the S % ([1]; replicate 1) was 47.49%. It also gave a G1 % ([1]; replicate 2) of 28.81%, a G2/M % ([1]; replicate 2) of 25.24% and a S % ([1]; replicate 2) of 45.95%. The “Relative change in cell cycle phase compared to untreated control, G1” value [1, 2] was 0.61, the “Relative change in cell cycle phase compared to untreated control, G2/M” value [1, 2] was 2.00 and the “Relative change in cell cycle phase compared to untreated control, S” value [1, 2] was 1.06. For the same molecule, the IC50 (A549) was 109 nM, the IC50 (NCIH23) was 4300 nM and the IC50 (Hs578) was 175 nM. It also gave an IC50 (HCT116) of 39 nM.
Molecule OC[C@H]1O[C@@H](n2ccc3c(-c4cn[nH]c4)ncnc32)[C@H](O)[C@@H]1O [Example 17, 4-(1H-Pyrazol-4-yl)-7-(β-D-ribofuranosyl)-7H-pyrrolo[2,3-d]pyrimidine] has an IC50 (PC3) of 427 nM, an IC50 (HCT15) of 674 nM and an IC50 (Du145) of 75 nM. For the same molecule, the IC50 (A549) was 6230 nM, the IC50 (NCIH23) was 5230 nM and the IC50 (Hs578) was 3060 nM. The IC50 (HCT116) was 5680 nM.
OC[C@H]1O[C@@H](n2cc(F)c3c(-c4c[nH]cn4)ncnc32)[C@H](O)[C@@H]1O [Example 26, 5-Fluoro-4-(1H-imidazol-4-yl)-7-(β-D-ribofuranosyl)-7H-pyrrolo[2,3-d]pyrimidine] gave an IC50 (PC3) of 2110 nM, an IC50 (HCT15) of 3590 nM and an IC50 (Du145) of 887 nM. For the same molecule, the IC50 (A549) was greater than 20000 nM, the IC50 (NCIH23) was 7620 nM and the IC50 (Hs578) was 2110 nM. The IC50 (HCT116) was greater than 20000 nM.
Molecule OC[C@H]1O[C@@H](n2ccc3c(-c4cccnc4)ncnc32)[C@H](O)[C@@H]1O [Example 10] has an IC50 (PC3) greater than 20000 nM, an IC50 (HCT15) greater than 20000 nM and an IC50 (Du145) greater than 20000 nM. The IC50 (A549) was greater than 20000 nM, the IC50 (NCIH23) was greater than 20000 nM and the IC50 (Hs578) was greater than 20000 nM. The IC50 (HCT116) was greater than 20000 nM.

Source: patent publication US8093226B2, “Cytostatic 7-deazapurine nucleosides” (Institute of Organic Chemistry and Biochemistry of the …, priority 2008, dated 2012)
